From PubChem BioAssay (NCI)
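Test compounds were applied to cells in 96-well plates for 48 hours at 5 doses. At the GI50, growth is halved. Definition used: TGI = concentration required for complete inhibition of growth.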

Each compound was assayed on OVCAR-8 ovarian (assay: DTP human tumour cell line panel, 48 h).

Compound	GI50	TGI
Nc1cc(NN=C(c2ccc(O)cc2)c2ccc(O)cc2)c([N+](=O)[O-])cc1[N+](=O)[O-]	3.12 µM	15.1 µM
O=CNc1ccc2c(c1)C(=O)c1ccccc1-2		> 100 µM
O=C1C=CC(=O)c2nc3c(cc21)CCC3		28.8 µM
Nc1c(C(=O)Nc2cccc(C(F)(F)F)c2)sc2nc3c(cc12)CCCCC3	3.49 µM	19.8 µM
Nc1ccc(C2=NNC(=O)Cc3cc4c(cc32)OCCO4)cc1Cl	8.03 µM	> 50 µM
C=C(C)CCOC(c1ccccc1)(c1ccccc1)c1ccccc1		> 100 µM
COc1ccc(C)cc1-c1cc(Sc2ccccc2)c(-c2cc(C)ccc2OC)o1		> 31.6 µM
COc1ccc2nc3cc(Cl)ccc3c(NCCNCC(C)O)c2c1 (stereo not given)	1.94 µM	7.65 µM
CCn1c(-c2nonc2N)nc2c(C#CC(C)(C)O)nc(OC[C@@H](N)c3ccccc3)cc21	4.45 µM	8.83 µM
Cn1ccc2c3c(Oc4ccc(NC(N)=O)cc4)ccnc3ccc21	> 100 µM	> 100 µM
CC1(C)OC1COc1c2occc2cc2ccc(=O)oc12 (stereo not given)		> 100 µM
CC(=O)OCCOCNC(=S)N/N=C(\C)c1cnccn1		> 100 µM
CCCCCCCCCCCCC(O)c1ccc(C#CCCCCCCCCCO)o1 (stereo not given)	16.5 µM	33.6 µM
Nc1n[nH]c2cc(F)c([C@@H]3Nc4ccc5[nH]ncc5c4[C@H]4C5CCC(C5)[C@@H]34)cc12 (stereo not given in full)	0.193 µM	> 30.6 µM
COc1ccc(CCN=C2NC(=O)/C(=C/c3ccc4ncccc4c3)S2)cc1	> 25 µM	> 25 µM
O=C(Nc1ccccc1-c1nn(C(=S)Nc2ccccc2)c(=S)n(C(=S)Nc2ccccc2)c1=O)C(F)(F)F		> 90.3 µM
O=c1c(-c2ccccc2)c2oc(c1-c1ccccc1)CSCc1cccc(c1)CSC2		> 100 µM

These compounds were tested on SF-295 CNS (assay: DTP human tumour cell line panel, 48 h).

Compound	GI50	TGI
Nc1cc(NN=C(c2ccc(O)cc2)c2ccc(O)cc2)c([N+](=O)[O-])cc1[N+](=O)[O-]	1.4 µM	2.91 µM
O=CNc1ccc2c(c1)C(=O)c1ccccc1-2		> 100 µM
O=C1C=CC(=O)c2nc3c(cc21)CCC3		> 100 µM
Nc1c(C(=O)Nc2cccc(C(F)(F)F)c2)sc2nc3c(cc12)CCCCC3	2.2 µM	12.2 µM
Nc1ccc(C2=NNC(=O)Cc3cc4c(cc32)OCCO4)cc1Cl	2.49 µM	> 50 µM
C=C(C)CCOC(c1ccccc1)(c1ccccc1)c1ccccc1		> 100 µM
COc1ccc(C)cc1-c1cc(Sc2ccccc2)c(-c2cc(C)ccc2OC)o1		> 100 µM
COc1ccc2nc3cc(Cl)ccc3c(NCCNCC(C)O)c2c1 (stereo not given)	1.68 µM	6.71 µM
CCn1c(-c2nonc2N)nc2c(C#CC(C)(C)O)nc(OC[C@@H](N)c3ccccc3)cc21	4.59 µM	9.63 µM
Cn1ccc2c3c(Oc4ccc(NC(N)=O)cc4)ccnc3ccc21	> 100 µM	> 100 µM
CC1(C)OC1COc1c2occc2cc2ccc(=O)oc12 (stereo not given)		> 100 µM
CC(=O)OCCOCNC(=S)N/N=C(\C)c1cnccn1		> 100 µM
CCCCCCCCCCCCC(O)c1ccc(C#CCCCCCCCCCO)o1 (stereo not given)	16.4 µM	31.7 µM
Nc1n[nH]c2cc(F)c([C@@H]3Nc4ccc5[nH]ncc5c4[C@H]4C5CCC(C5)[C@@H]34)cc12 (stereo not given in full)	0.12 µM	6.03 µM
COc1ccc(CCN=C2NC(=O)/C(=C/c3ccc4ncccc4c3)S2)cc1	> 25 µM	> 25 µM
O=C(Nc1ccccc1-c1nn(C(=S)Nc2ccccc2)c(=S)n(C(=S)Nc2ccccc2)c1=O)C(F)(F)F		> 100 µM
O=c1c(-c2ccccc2)c2oc(c1-c1ccccc1)CSCc1cccc(c1)CSC2		> 100 µM

What follows are compounds tested on SK-MEL-28 melanoma (assay: DTP human tumour cell line panel, 48 h).

Compound	GI50	TGI
Nc1cc(NN=C(c2ccc(O)cc2)c2ccc(O)cc2)c([N+](=O)[O-])cc1[N+](=O)[O-]	1.6 µM	3.56 µM
O=CNc1ccc2c(c1)C(=O)c1ccccc1-2		> 100 µM
O=C1C=CC(=O)c2nc3c(cc21)CCC3		40.4 µM
Nc1c(C(=O)Nc2cccc(C(F)(F)F)c2)sc2nc3c(cc12)CCCCC3	3.73 µM	23.6 µM
Nc1ccc(C2=NNC(=O)Cc3cc4c(cc32)OCCO4)cc1Cl	9.1 µM	> 50 µM
C=C(C)CCOC(c1ccccc1)(c1ccccc1)c1ccccc1		> 100 µM
COc1ccc(C)cc1-c1cc(Sc2ccccc2)c(-c2cc(C)ccc2OC)o1		> 31.6 µM
COc1ccc2nc3cc(Cl)ccc3c(NCCNCC(C)O)c2c1 (stereo not given)	2.06 µM	4.02 µM
CCn1c(-c2nonc2N)nc2c(C#CC(C)(C)O)nc(OC[C@@H](N)c3ccccc3)cc21	4.85 µM	8.47 µM
Cn1ccc2c3c(Oc4ccc(NC(N)=O)cc4)ccnc3ccc21	> 100 µM	> 100 µM
CC1(C)OC1COc1c2occc2cc2ccc(=O)oc12 (stereo not given)		> 100 µM
CC(=O)OCCOCNC(=S)N/N=C(\C)c1cnccn1		> 100 µM
CCCCCCCCCCCCC(O)c1ccc(C#CCCCCCCCCCO)o1 (stereo not given)	37.2 µM	> 100 µM
Nc1n[nH]c2cc(F)c([C@@H]3Nc4ccc5[nH]ncc5c4[C@H]4C5CCC(C5)[C@@H]34)cc12 (stereo not given in full)	1.37 µM	21.9 µM
COc1ccc(CCN=C2NC(=O)/C(=C/c3ccc4ncccc4c3)S2)cc1	> 25 µM	> 25 µM
O=C(Nc1ccccc1-c1nn(C(=S)Nc2ccccc2)c(=S)n(C(=S)Nc2ccccc2)c1=O)C(F)(F)F		> 100 µM
O=c1c(-c2ccccc2)c2oc(c1-c1ccccc1)CSCc1cccc(c1)CSC2		87.4 µM

The compounds below were run on SK-MEL-5 melanoma (assay: DTP human tumour cell line panel, 48 h).

Compound	GI50	TGI
Nc1cc(NN=C(c2ccc(O)cc2)c2ccc(O)cc2)c([N+](=O)[O-])cc1[N+](=O)[O-]	1.52 µM	2.85 µM
O=CNc1ccc2c(c1)C(=O)c1ccccc1-2		> 100 µM
O=C1C=CC(=O)c2nc3c(cc21)CCC3		45.9 µM
Nc1c(C(=O)Nc2cccc(C(F)(F)F)c2)sc2nc3c(cc12)CCCCC3	1.18 µM	12 µM
Nc1ccc(C2=NNC(=O)Cc3cc4c(cc32)OCCO4)cc1Cl	2.28 µM	> 50 µM
C=C(C)CCOC(c1ccccc1)(c1ccccc1)c1ccccc1		> 100 µM
COc1ccc(C)cc1-c1cc(Sc2ccccc2)c(-c2cc(C)ccc2OC)o1		> 31.6 µM
COc1ccc2nc3cc(Cl)ccc3c(NCCNCC(C)O)c2c1 (stereo not given)	1.68 µM	3.06 µM
CCn1c(-c2nonc2N)nc2c(C#CC(C)(C)O)nc(OC[C@@H](N)c3ccccc3)cc21	3.99 µM	7.37 µM
Cn1ccc2c3c(Oc4ccc(NC(N)=O)cc4)ccnc3ccc21	20.7 µM	> 100 µM
CC1(C)OC1COc1c2occc2cc2ccc(=O)oc12 (stereo not given)		> 100 µM
CC(=O)OCCOCNC(=S)N/N=C(\C)c1cnccn1		32.7 µM
CCCCCCCCCCCCC(O)c1ccc(C#CCCCCCCCCCO)o1 (stereo not given)	25.5 µM	47.2 µM
Nc1n[nH]c2cc(F)c([C@@H]3Nc4ccc5[nH]ncc5c4[C@H]4C5CCC(C5)[C@@H]34)cc12 (stereo not given in full)	0.128 µM	0.355 µM
COc1ccc(CCN=C2NC(=O)/C(=C/c3ccc4ncccc4c3)S2)cc1	> 25 µM	> 25 µM
O=C(Nc1ccccc1-c1nn(C(=S)Nc2ccccc2)c(=S)n(C(=S)Nc2ccccc2)c1=O)C(F)(F)F		26 µM
O=c1c(-c2ccccc2)c2oc(c1-c1ccccc1)CSCc1cccc(c1)CSC2		> 100 µM

What follows are compounds tested on SN12C renal (assay: DTP human tumour cell line panel, 48 h).

Compound	GI50	TGI
Nc1cc(NN=C(c2ccc(O)cc2)c2ccc(O)cc2)c([N+](=O)[O-])cc1[N+](=O)[O-]	1.58 µM	3.4 µM
O=CNc1ccc2c(c1)C(=O)c1ccccc1-2		> 100 µM
O=C1C=CC(=O)c2nc3c(cc21)CCC3		40.3 µM
Nc1c(C(=O)Nc2cccc(C(F)(F)F)c2)sc2nc3c(cc12)CCCCC3	3.41 µM	19.3 µM
Nc1ccc(C2=NNC(=O)Cc3cc4c(cc32)OCCO4)cc1Cl	14.9 µM	> 50 µM
C=C(C)CCOC(c1ccccc1)(c1ccccc1)c1ccccc1		> 100 µM
COc1ccc(C)cc1-c1cc(Sc2ccccc2)c(-c2cc(C)ccc2OC)o1		> 31.6 µM
COc1ccc2nc3cc(Cl)ccc3c(NCCNCC(C)O)c2c1 (stereo not given)	1.85 µM	7.4 µM
CCn1c(-c2nonc2N)nc2c(C#CC(C)(C)O)nc(OC[C@@H](N)c3ccccc3)cc21	3.96 µM	7.66 µM
Cn1ccc2c3c(Oc4ccc(NC(N)=O)cc4)ccnc3ccc21	> 100 µM	> 100 µM
CC1(C)OC1COc1c2occc2cc2ccc(=O)oc12 (stereo not given)		> 100 µM
CC(=O)OCCOCNC(=S)N/N=C(\C)c1cnccn1		> 100 µM
CCCCCCCCCCCCC(O)c1ccc(C#CCCCCCCCCCO)o1 (stereo not given)	18.7 µM	33.2 µM
Nc1n[nH]c2cc(F)c([C@@H]3Nc4ccc5[nH]ncc5c4[C@H]4C5CCC(C5)[C@@H]34)cc12 (stereo not given in full)	0.228 µM	37.1 µM
COc1ccc(CCN=C2NC(=O)/C(=C/c3ccc4ncccc4c3)S2)cc1	> 25 µM	> 25 µM
O=C(Nc1ccccc1-c1nn(C(=S)Nc2ccccc2)c(=S)n(C(=S)Nc2ccccc2)c1=O)C(F)(F)F		> 100 µM
O=c1c(-c2ccccc2)c2oc(c1-c1ccccc1)CSCc1cccc(c1)CSC2		> 100 µM
